From paper PMC5645128, “Hydrophobic residues are critical for the helix-forming, hemolytic and bactericidal activities of amphipathic antimicrobial peptide TP4” (PLoS ONE, 2017) come the findings set out here.

Data set [1] deals with S. aureus. It is filed as cell-based, Staphylococcus aureus. The protocol: (§1) All the tested microbes were cultured at 37°C except C. albicans (30°C) in respective medium. 90 μl of cell suspension (2–4 x10^6 cfu/ml) mixed with 10 μl of diluted TP4 were loaded in 96-well microplate and incubated overnight with gentle agitation at 100 rpm. The absorbance of TP4-treated bacteria in 96-well plate was measured by SpectraMax 190 microplate reader at 600 nm. The remaining cfu in the TP4-treated sample was determined by plating on agar plates. Minimum inhibitory concentration (MIC) was defined as the lowest AMP concentration in order to keep the solution with the same absorbance as that of culture medium. Minimum bactericidal concentration (MBC) was defined as the lowest AMP concentration able to kill 99.99% of microorganisms. At least three independent experiments were performed to determine the average value with standard deviation.

For data set [2], the system named is MRSA. It is filed as cell-based, methicillin-resistant Staphylococcus aureus. How it is done: as §1
Data set [3] concerns C. albicans. It is filed as cell-based, Candida albicans. How it is done: as §1
The subject of data set [4] is P. aeruginosa. It is filed as cell-based, Pseudomonas aeruginosa. How it is done:
as §1

Data set [5] deals with mouse red blood cells. It is filed as cell-based. How it is done: For blood collection, cardiac puncture was performed on anesthetized mice (by 3% isoflurane) by a 1 ml heparin-rinsed syringe with a 22 gauge needle. After blood collection, the animals were euthanized by cervical dislocation. Fresh mouse blood was rinsed three times with PBS, centrifuged for 5 minutes at 1500 rpm and re-suspended in PBS (1:30 dilution). The diluted erythrocyte (150 μl) was incubated with TP4-derived peptides at 37°C for 3 hr and centrifuged at 120x g for 5 minutes. The supernatants (100 μl) were transferred to a 96-well plate and the absorbance of released hemoglobin was measured by SpectraMax 190 microplate reader at 414 nm. Percent hemolysis was calculated by the following formula: % hemolysis = [(A414in the peptide solution−A414in PBS)/(A414in 0.1% Triton-X 100 –A414in PBS)]. Zero and 100% hemolysis were determined in PBS and 0.1% Triton-X 100, respectively.
Fig 8 Hemolytic activity of TP4-derived peptides. Diluted mouse red blood cells (150 μl) was incubated with TP4-derived peptides at 37°C for 3 hr and spun at 120 x g for 5 minutes. The supernatants (100 μl) were transferred to a 96-well plate for measurement of released hemoglobulin at 414 nm by the SpectraMax 190 microplate reader.

≈ marks a conversion by molar mass, not a printed value. Ends that are not written are not given here.

Consider FIHHIIGGLFSAGKAIHSLIHRRRR [R18S/R21H], for which the MBC was determined as 64 µg/mL in data set [1], 32 µg/mL in data set [2], 512 µg/mL in data set [3] and 512 µg/mL in data set [4]. In addition, the MIC in data set [1] was 32 µg/mL; in data set [2] it was 32 µg/mL; in data set [3] it was 256 µg/mL; in data set [4] it was 256 µg/mL.

As to FIHHIIGGLFSAGKAIHRLIRRRRR [TP4], the MBC stood at 16 µg/mL in data set [1], 32 µg/mL in data set [2], 128 µg/mL in data set [3] and 128 µg/mL in data set [4]. The MIC stood at 8 µg/mL in data set [1], 16 µg/mL in data set [2], 128 µg/mL in data set [3] and 64 µg/mL in data set [4].

FIHHIIGGLFSAGKAIHRHHRRRRR [L19H/I20H]: the MBC is 512 µg/mL in data set [1], over 512 µg/mL in data set [2], 128 µg/mL in data set [3] and over 512 µg/mL in data set [4]. Besides, the MIC in data set [1] is 128 µg/mL; in data set [2] it was over 512 µg/mL; in data set [3], 128 µg/mL; in data set [4] it was 256 µg/mL.

For the compound FIHHAAGGLFSAGKAIHRLIRRRRR [I5A/I6A], the MBC in data set [1] was over 512 µg/mL; in data set [2] it was over 512 µg/mL; in data set [3] it was 128 µg/mL; in data set [4] it was 512 µg/mL. The MIC was over 512 µg/mL in data set [1], over 512 µg/mL in data set [2], 128 µg/mL in data set [3] and 512 µg/mL in data set [4].

For FIHHIIGGLFSVGKHIHRLIRRRRR [A12V/A15H], the MBC in data set [1] is 16 µg/mL; in data set [2], 64 µg/mL; in data set [3], 128 µg/mL; in data set [4] it was 128 µg/mL. Further, the MIC was 16 µg/mL in data set [1], 32 µg/mL in data set [2], 128 µg/mL in data set [3] and 128 µg/mL in data set [4].

On to HHIIGGLFSAGKAIHRLIRRRRR [dN2], for which the MBC in data set [1] is 512 µg/mL; in data set [2], over 512 µg/mL; in data set [3] it was 128 µg/mL; in data set [4] it was over 512 µg/mL. Moreover, the MIC is 512 µg/mL in data set [1], over 512 µg/mL in data set [2], 128 µg/mL in data set [3] and 512 µg/mL in data set [4].

For “FIHHIIGGLFSVGKHIHSLIHGH [TP3, reference compound]”, the MBC in data set [1] is 256 µg/mL; in data set [2], over 512 µg/mL; in data set [3] it was 128 µg/mL; in data set [4], over 512 µg/mL. Further, the MIC in data set [1] is 256 µg/mL; in data set [2], 256 µg/mL; in data set [3], 128 µg/mL; in data set [4], over 512 µg/mL.

Consider FIHHIIGGAASAGKAIHRLIRRRRR [L9A/F10A], for which the MBC in data set [1] was over 512 µg/mL; in data set [2] it was over 512 µg/mL; in data set [3], 128 µg/mL; in data set [4], over 512 µg/mL. The MIC in data set [1] was over 512 µg/mL; in data set [2] it was over 512 µg/mL; in data set [3], 128 µg/mL; in data set [4], over 512 µg/mL.

As for AAHHIIGGLFSAGKAIHRLIRRRRR [F1A/I2A], the MBC is 256 µg/mL in data set [1], over 512 µg/mL in data set [2], 128 µg/mL in data set [3] and 256 µg/mL in data set [4]. In addition, the MIC is 128 µg/mL in data set [1], over 512 µg/mL in data set [2], 64 µg/mL in data set [3] and 256 µg/mL in data set [4].

For the compound FIHHIIGGLFSAGKAIHRLIRRR [dC2], the MBC in data set [1] is 32 µg/mL; in data set [2], 32 µg/mL; in data set [3], 128 µg/mL; in data set [4], over 512 µg/mL. In addition, the MIC in data set [1] came out at 16 µg/mL; in data set [2] it was 32 µg/mL; in data set [3], 128 µg/mL; in data set [4] it was 512 µg/mL.

On to FIHHIIGGLFSAGKAEHRLIRRRRR [I16E], for which the MBC in data set [1] was over 512 µg/mL; in data set [2], over 512 µg/mL; in data set [3], 128 µg/mL; in data set [4], over 512 µg/mL. Besides, the MIC is over 512 µg/mL in data set [1], over 512 µg/mL in data set [2], 128 µg/mL in data set [3] and over 512 µg/mL in data set [4].

Regarding FIHHIIGGLFSAGKAAHRLIRRRRR [I16A], the MBC in data set [1] is 128 µg/mL; in data set [2] it was 512 µg/mL; in data set [3], 128 µg/mL; in data set [4] it was over 512 µg/mL. Further, the MIC in data set [1] was 64 µg/mL; in data set [2] it was 64 µg/mL; in data set [3], 128 µg/mL; in data set [4] it was 256 µg/mL.

In the case of FIHHIIGGLFSAGKAIHRLIR [dC4], the MBC in data set [1] is 128 µg/mL; in data set [2] it was 256 µg/mL; in data set [3] it was 256 µg/mL; in data set [4], over 512 µg/mL. For the same compound, the MIC is 64 µg/mL in data set [1], 256 µg/mL in data set [2], 128 µg/mL in data set [3] and over 512 µg/mL in data set [4].

As to FIHHIIGGLFSVGKHIHSLIHRRRR [VHSH], the MBC was 16 µg/mL in data set [1], 32 µg/mL in data set [2], 128 µg/mL in data set [3] and over 512 µg/mL in data set [4]. Also, the MIC in data set [1] was 16 µg/mL; in data set [2], 16 µg/mL; in data set [3], 128 µg/mL; in data set [4], over 512 µg/mL.

On to IIGGLFSAGKAIHRLIRRRRR [dN4], for which the MBC in data set [1] was 128 µg/mL; in data set [2], 256 µg/mL; in data set [3] it was 128 µg/mL; in data set [4] it was over 512 µg/mL. Moreover, the MIC in data set [1] came to 128 µg/mL; in data set [2] it was 64 µg/mL; in data set [3], 64 µg/mL; in data set [4] it was 256 µg/mL.

`CC[C@H](C)[C@H](NC(=O)[C@H](CO)NC(=O)[C@H](Cc1ccccc1)NC(=O)[C@H](CC(C)C)NC(=O)CNC(=O)CNC(=O)[C@@H](NC(=O)[C@@H](NC(=O)[C@H](Cc1c[nH]cn1)NC(=O)[C@H](Cc1c[nH]cn1)NC(=O)[C@@H](NC(=O)[C@@H](N)Cc1ccccc1)[C@@H](C)CC)[C@@H](C)CC)[C@@H](C)CC)C(=O)NCC(=O)N[C@@H](CCCCN)C(=O)N[C@H](C(=O)N[C@H](C(=O)N[C@@H](Cc1c[nH]cn1)C(=O)N[C@@H](CCCNC(=N)N)C(=O)N[C@@H](CC(C)C)C(=O)N[C@H](C(=O)N[C@@H](CCCNC(=N)N)C(=O)N[C@@H](CCCNC(=N)N)C(=O)N[C@@H](CCCNC(=N)N)C(=O)N[C@@H](CCCNC(=N)N)C(=O)N[C@@H](CCCNC(=N)N)C(=O)O)[C@@H](C)CC)[C@@H](C)CC)[C@@H](C)CC` [A12I/A15I]: the MBC in data set [1] is 64 µg/mL (≈ 20.9 µM); in data set [2], 256 µg/mL (≈ 83.5 µM); in data set [3], 128 µg/mL (≈ 41.8 µM); in data set [4], over 512 µg/mL. Moreover, the MIC in data set [1] is 16 µg/mL (≈ 5.22 µM); in data set [2] it was 64 µg/mL (≈ 20.9 µM); in data set [3], 128 µg/mL (≈ 41.8 µM); in data set [4] it was 512 µg/mL (≈ 167 µM). Further, in data set [5], the “hemolytic activity compared with wild type TP4” value is given as “four times higher activity than wild type TP4”.

For the compound FIAAIIGGLFSAGKAIHRLIRRRRR [H3A/H4A], the MBC is 32 µg/mL in data set [1], 256 µg/mL in data set [2], 512 µg/mL in data set [3] and over 512 µg/mL in data set [4]. Further, the MIC in data set [1] is 32 µg/mL; in data set [2], 128 µg/mL; in data set [3], 512 µg/mL; in data set [4], over 512 µg/mL.

With FIHHIIGGLFSAGKARHRLIRRRRR [I16R], the MBC is over 512 µg/mL in data set [1], over 512 µg/mL in data set [2], 256 µg/mL in data set [3] and over 512 µg/mL in data set [4]. Moreover, the MIC in data set [1] is over 512 µg/mL; in data set [2], over 512 µg/mL; in data set [3] it was 128 µg/mL; in data set [4], over 512 µg/mL.
